Experimental data reported in BigSolDB 2.1.

NC(=O)N/N=C/c1ccc([N+](=O)[O-])o1
solubility (mole fraction)
Conditions | 278.15 K | 283.15 K | 288.15 K | 293.15 K | 298.15 K | 303.15 K | 308.15 K | 313.15 K | 318.15 K | 323.15 K
in DMSO | – | – | – | 0.0448 | 0.0469 | 0.0493 | 0.053 | 0.0577 | 0.0636 | 0.0709
in NMP | 0.0317 | 0.0354 | 0.0396 | 0.0457 | 0.0522 | 0.0591 | 0.0662 | 0.075 | 0.0853 | 0.0985
in ethanol | 6.72e-05 | 8.38e-05 | 0.000102 | 0.000123 | 0.000149 | 0.000178 | 0.000213 | 0.000258 | 0.000303 | 0.000364
in isopropanol | 6.89e-05 | 8.99e-05 | 0.000117 | 0.000138 | 0.000175 | 0.000223 | 0.00027 | 0.000331 | 0.00039 | 0.000484
in water | 1.32e-05 | 1.66e-05 | 1.96e-05 | 2.46e-05 | 2.98e-05 | 3.66e-05 | 4.5e-05 | 5.75e-05 | 6.84e-05 | 8.47e-05
